Measured values from article PMC9315496, “A Comparison of the Photophysical, Electrochemical and Cytotoxic Properties of meso-(2-, 3- and 4-Pyridyl)-BODIPYs and Their Derivatives” (Sensors (Basel, Switzerland), 2022).
Read-outs that look alike come from different tables or passages of the source. Marks after values point to notes of the source that are not given here.

Tests used:
HEp2 cells [1] = assay: Phototoxicity (1.5 J/cm^2), Cell Titer Blue; type: cell-based; details: Homo sapiens, HEp-2, light or radiation study, light dose 1.5 J/cm^2
Description: (§1) Human carcinoma HEp2 cells were obtained from ATCC and maintained in a 75 cm^2 flask (Chemglass) with 1× MEM (Eagle’s minimal essential medium) containing 10% FBS (fetal bovine serum) and 1% antibiotic (penicillin–streptomycin) in a humidified, 5% CO2 incubator at 37 °C. Stock solutions with a concentration of 32 mM in DMSO were prepared for each BODIPY. The stock solution was diluted to the final working concentrations with culture medium. The HEp2 cells were plated at 7500–10,000 cells per well in a Costar 96-well plate and allowed to grow for 24 h. The BODIPY stock solution was diluted to a 200 μM working solution and two-fold serial dilutions were prepared with final concentrations of 200, 100, 50, 25, 12.5, 6.25, and 0 μM. Each BODIPY was incubated for 24 h at 37 °C under 5% CO2. For the dark cytotoxicity experiments, after incubation, excess BODIPY was removed by washing the cells three times with 1× PBS (phosphate-buffered saline) and replacing with media containing 20% Cell Titer Blue (Promega, Madison, WI, USA). The cells were then incubated for additional 24 h at 37 °C under 5% CO2 and the cell toxicity was determined by fluorescence intensity at ex 570/em 615 nm using a FluoStar Optima microplate reader (BMG Labtech, Cary, NC, USA).
For the phototoxicity experiments, after incubation the cells were exposed to a light dose of ~1.5 J/cm^2 generated using a 600 W Quartz Tungsten Halogen lamp (Newport Corporation, Irvine, CA, USA). The cells were exposed for 20 min while the 96-well plate rested on an EchoTherm chilling plate (Torrey Pines Scientific, Carlsbad, CA, USA) set to 5 °C. Following light exposure, the loading media was removed and media containing 20% Cell Titer Blue was added. After incubation for 24 h at 37 °C under 5% CO2, the cell viability was determined as described above.

[2] = UV-vis absorption and emission spectroscopy, relative fluorescence quantum yields; type: physicochemical; details: for λabs / λem: room temperature; for Фf (relative fluorescence quantum yield): standard rhodamine-6G (Ф = 0.86) in methanol, λexc = 473 nm; for Φf (relative fluorescence quantum yield): standard Ru(bpy)Cl2.6H2O (Φf = 0.028) in H2O, λexc = 436 nm
Description: UV−vis absorption spectra were collected on a Varian Cary 50 Bio spectrophotometer. Emission spectra were obtained on a PerkinElmer LS55 spectrophotometer, at room temperature. Spectrophotometric grade solvents and quartz cuvettes (1 cm path length) were used. Relative fluorescence quantum yields (Φf) were calculated using rhodamine 6G (Φf = 0.86 in methanol) as reference for the neutral BODIPYs and Ru(bpy)Cl2.6H2O (Φf = 0.028 in water) as the standard for the cationic BODIPYs using the following equation: Φx = Φst × Gradx/Gradst × (ηx/ηst)^2, where the ΦX and ΦST are the quantum yields of the sample and standard, GradX and GradST are the gradients from the plot of integrated fluorescence intensity vs. absorbance, and η represents the refractive index of the solvent (x is for the sample and st for the standard).

HEp2 cells [3] = assay: Dark cytotoxicity, Cell Titer Blue; type: cell-based; details: Homo sapiens, HEp-2, 24 h incubation, read-out: Dark Toxicity (IC50)
Description: as §1

Cyclic voltammetry = type: physicochemical
Source text: Cyclic voltammograms were collected on a Biologic SP-300 potentiostat using a three-electrode setup with a platinum working electrode (2 mm diameter, CH Instruments), platinum counter electrode (2 mm diameter, CH Instruments), and a silver wire pseudo reference-electrode stored in 0.25 M NBu4PF6 in anhydrous acetonitrile and separated from the electrochemical cell by a glass frit. The electrochemical cell was composed of a borosilicate glass scintillation vial with a custom-machined cap. Working electrodes were polished and then pre-treated by cycling between upper and lower boundaries of the electrochemical window for the experiment in a solution containing only the electrolyte. Measurements were taken in a solution of 0.25 M recrystallized NBu4PF6 in dried and degassed anhydrous acetonitrile. BODIPYs were added to 5 mL of electrolyte solution to give a concentration of 1 mM. Each solution also contained 1 mM ferrocene as an internal reference. Solutions were sparged with N2 before each measurement.

[4] = cited from earlier work
[5] = vs. Fc^+/Fc, 100 mV/s, acetonitrile, 0.25 M NBu4PF6

SMILES	IC50 (HEp2 cells [1])	Stokes Shift ([2]; CH3CN)	ε (molar extinction coefficient) ([2]; CH3CN)	λabs ([2]; CH3CN)	λem ([2]; CH3CN)	Stokes Shift ([2]; CH3OH)	labs ([2]; CH3OH)	lem ([2]; CH3OH)	ε (molar extinction coefficient) ([2]; CH3OH)	Фf (relative fluorescence quantum yield) ([2]; CH3OH)	IC50 (HEp2 cells [3])	Stokes Shift ([4]; CH3CN)	Φf (fluorescence quantum yield) ([4]; CH3CN)	ε (molar extinction coefficient) ([4]; CH3CN)	λabs ([4]; CH3CN)	λem ([4]; CH3CN)	also measured
CC1=C(Cl)C(C)=[N+]2C1=C(c1ccccn1)c1c(C)c(Cl)c(C)n1[B-]2(F)F [2PyCl2, 2,6-Dichloro-8-(2-pyridyl)-1,3,5,7-tetramethyl-BODIPY]	> 100 µM	15 nm	64,280 M^−1 cm ^−1	530 nm	545 nm	17 nm	531 nm	548 nm	69940 M-1 cm -1	0.23	> 200 µM	–	–	–	–	–	–
CC1=CC(C)=[N+]2C1=C(c1ccccn1)c1c(C)cc(C)n1[B-]2(F)F [2Py]	> 100 µM	12 nm	87,500 M^−1 cm ^−1	502 nm	514 nm	10 nm	504 nm	514 nm	119800 M-1 cm -1	0.13	> 200 µM	–	–	–	–	–	–
CC1=CC(C)=[N+]2C1=C(c1cccc[n+]1C)c1c(C)cc(C)n1[B-]2(F)F [2catPy, 1,3,5,7-Tetramethyl-8-(N-methyl-2-pyridyl)-BODIPY Iodide]	> 100 µM	24 nm	65,800 M^−1 cm ^−1	520 nm	544 nm	–	–	–	–	–	> 200 µM	–	–	–	–	–	first reduction, more negative than the two-electron reduction in 4catPy (Cyclic voltammetry): 30 mV; oxidation potential shift positive compared with 4catPy and 3catPy (Cyclic voltammetry): 100 mV; second reduction, more negative than the two-electron reduction in 4catPy (Cyclic voltammetry): 230 mV; E1/2red, first one-electron reduction (Cyclic voltammetry; [5]): −1.09 V; E1/2red, second one-electron reduction (Cyclic voltammetry; [5]): −1.29 V; E1/2ox (Cyclic voltammetry; vs. Fc^+/Fc, 100 mV/s, acetonitrile, 0.25 M NBu4PF6, PF6^− counterion): ~+0.99 ^a V; Φf (relative fluorescence quantum yield) ([2]; CH3CN): 0.13 ^b; Stokes Shift ([2]; H2O): 22 nm; ε (molar extinction coefficient) ([2]; H2O): 52,380 M^−1 cm ^−1; λabs ([2]; H2O): 520 nm; λem ([2]; H2O): 542 nm; Φf (relative fluorescence quantum yield) ([2]; H2O): 0.001 ^b; bathochromic shift of maximum absorption wavelength upon methylation ([2]; acetonitrile, experimental): 18 nm
CC1=C(Cl)C(C)=[N+]2C1=C(c1cccnc1)c1c(C)c(Cl)c(C)n1[B-]2(F)F [3PyCl2, 2,6-Dichloro-8-(3-pyridyl)-1,3,5,7-tetramethyl-BODIPY]	> 100 µM	15 nm	57,540 M^−1 cm ^−1	527 nm	542 nm	16 nm	530 nm	546 nm	66880 M-1 cm -1	0.57	200 µM	–	–	–	–	–	–
CC1=CC(C)=[N+]2C1=C(c1cccnc1)c1c(C)cc(C)n1[B-]2(F)F [3Py]	> 100 µM	12 nm	92,900 M^−1 cm ^−1	502 nm	514 nm	12 nm	503 nm	515 nm	98140 M-1 cm -1	0.34	> 200 µM	–	–	–	–	–	–
CC1=C(Cl)C(C)=[N+]2C1=C(c1ccncc1)c1c(C)c(Cl)c(C)n1[B-]2(F)F [4PyCl2]	–	–	–	–	–	–	–	–	–	–	–	18 nm	0.58	50,800 M^−1 cm ^−1	528 nm	546 nm	–
CC1=CC(C)=[N+]2C1=C(c1ccncc1)c1c(C)cc(C)n1[B-]2(F)F [4Py]	> 100 µM	–	–	–	–	–	–	–	–	–	> 200 µM	14 nm	0.31	72,100 M^−1 cm ^−1	501 nm	515 nm	–
CC1=C(Cl)C(C)=[N+]2C1=C(c1cc[n+](C)cc1)c1c(C)c(Cl)c(C)n1[B-]2(F)F [4catPyCl2]	–	–	–	–	–	–	–	–	–	–	–	62 nm	0.048	23,400 M^−1 cm ^−1	538 nm	600 nm	Stokes Shift ([4]; H2O): 65 nm; Φf (fluorescence quantum yield) ([4]; H2O): 0.038; ε (molar extinction coefficient) ([4]; H2O): 11,640 M^−1 cm ^−1; λabs ([4]; H2O): 540 nm; λem ([4]; H2O): 605 nm; two-electron reduction shift positive compared with 4catPy (Cyclic voltammetry): 180 mV; anodic peak shift positive compared with the corresponding unchlorinated BODIPY (Cyclic voltammetry; 100 mV/s): 180 mV; E1/2red, two-electron reduction to doubly reduced state (Cyclic voltammetry; [5]): −0.89 ^e V; E1/2ox (Cyclic voltammetry; vs. Fc^+/Fc, value at 1 V/s, acetonitrile, 0.25 M NBu4PF6): +1.03 ^d V; fluorescence enhancement relative to the non-chlorinated pyridinium BODIPY ([2]; water): 10 fold
O.O.O.O.O.O.[Cl-].[Cl-].[Ru+2].c1ccc(-c2ccccn2)nc1.c1ccc(-c2ccccn2)nc1.c1ccc(-c2ccccn2)nc1 [Ru(bpy)Cl2.6H2O, reference compound]	–	–	–	–	–	–	–	–	–	–	–	–	–	–	–	–	Φf of the reference standard ([4]; in water): 0.028
CC/N=c1\cc2oc3cc(NCC)c(C)cc3c(-c3ccccc3C(=O)OCC)c-2cc1C [rhodamine 6G, reference compound]	–	–	–	–	–	–	–	–	–	–	–	–	–	–	–	–	Φf of the reference standard ([4]; in methanol): 0.86
